Results on seven cell lines are retold here after the supplement of paper PMC10307832.

Common to all, as to assay: relative viability (nuclei count vs DMSO), 5 days (fraction); higher = more cells survive
Compound in the assay “Lapatinib + Bortezomib”: CS(=O)(=O)CCNCc1ccc(-c2ccc3ncnc(Nc4ccc(OCc5cccc(F)c5)c(Cl)c4)c3c2)o1 [Lapatinib] + CC(C)C[C@H](NC(=O)[C@H](Cc1ccccc1)NC(=O)c1cnccn1)B(O)O [Bortezomib] (partner 0.002 µM)
Summed up: (§1)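 After 5 days of treatment, lung cancer cells in 1536-well plates were fixed and stained in a single step (final 0.05% Triton X-100, 1% formaldehyde, 1 ug/ml Hoechst) and their nuclei counted on 4× images. Treatment had been applied by pin tool the day after seeding as one drug alone or as a fixed anchor-drug dose with five library-drug doses (not always all listed) in √10 steps. Relative viability is the nuclei count of treated wells divided by that of vehicle wells, and values are medians of duplicate plates.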

Compound in the assay “Lapatinib + Pemetrexed”: CS(=O)(=O)CCNCc1ccc(-c2ccc3ncnc(Nc4ccc(OCc5cccc(F)c5)c(Cl)c4)c3c2)o1 [Lapatinib] + Nc1nc2[nH]cc(CCc3ccc(C(=O)N[C@@H](CCC(=O)O)C(=O)O)cc3)c2c(=O)[nH]1 [Pemetrexed] (partner 0.2 µM)
Summed up:
as §1

Compound in the assay “Lapatinib + Dasatinib”: CS(=O)(=O)CCNCc1ccc(-c2ccc3ncnc(Nc4ccc(OCc5cccc(F)c5)c(Cl)c4)c3c2)o1 [Lapatinib] + Cc1nc(Nc2ncc(C(=O)Nc3c(C)cccc3Cl)s2)cc(N2CCN(CCO)CC2)n1 [Dasatinib] (partner 0.075 µM)
A digest of the protocol: as §1

Compound in the assay “Lapatinib + Phenformin”: CS(=O)(=O)CCNCc1ccc(-c2ccc3ncnc(Nc4ccc(OCc5cccc(F)c5)c(Cl)c4)c3c2)o1 [Lapatinib] + N=C(N)NC(=N)NCCc1ccccc1 [Phenformin] (partner 250 µM)
Summed up:
as §1

BEN: the relative viability came to 0.665 in the assay with Lapatinib + Bortezomib (first compound 0.02 µM); 0.783 in the assay with Lapatinib + Bortezomib (first compound 0.06325 µM); 0.637 with Lapatinib + Bortezomib (first compound 0.2 µM); 0.781 in the assay with Lapatinib + Bortezomib (first compound 0.6325 µM); 0.608 with Lapatinib + Bortezomib (first compound 2 µM); 0.409 in the assay with Lapatinib + Pemetrexed (first compound 0.02 µM). In addition, the relative viability with Lapatinib + Pemetrexed (first compound 0.06325 µM) came out at 0.847; with Lapatinib + Pemetrexed (first compound 0.2 µM), 0.683; with Lapatinib + Pemetrexed (first compound 0.6325 µM) it was 0.802; with Lapatinib + Pemetrexed (first compound 2 µM), 0.71; with Lapatinib + Dasatinib (first compound 0.06325 µM), 0.307; with Lapatinib + Dasatinib (first compound 0.2 µM) it was 0.303. Also, the relative viability with Lapatinib + Dasatinib (first compound 0.6325 µM) was 0.28; in the assay with Lapatinib + Dasatinib (first compound 2 µM), 0.358; with Lapatinib + Phenformin (first compound 0.06325 µM), 0.301; in the assay with Lapatinib + Phenformin (first compound 0.2 µM) it was 0.26; with Lapatinib + Phenformin (first compound 0.6325 µM) it was 0.241; with Lapatinib + Phenformin (first compound 2 µM) it was 0.229.
Take LCLC-103H: the relative viability with Lapatinib + Bortezomib (first compound 0.06325 µM) amounted to 1.03; with Lapatinib + Bortezomib (first compound 0.2 µM), 1.13; with Lapatinib + Bortezomib (first compound 0.6325 µM), 1.06; with Lapatinib + Bortezomib (first compound 2 µM), 1.04; with Lapatinib + Pemetrexed (first compound 0.02 µM), 0.558; in the assay with Lapatinib + Pemetrexed (first compound 0.06325 µM), 0.437. The relative viability with Lapatinib + Pemetrexed (first compound 0.2 µM) was determined as 0.47; with Lapatinib + Pemetrexed (first compound 0.6325 µM) it was 0.494; with Lapatinib + Pemetrexed (first compound 2 µM), 0.425; in the assay with Lapatinib + Dasatinib (first compound 0.02 µM) it was 0.312; with Lapatinib + Dasatinib (first compound 0.06325 µM) it was 0.378; with Lapatinib + Dasatinib (first compound 0.2 µM) it was 0.455. For the same cell line, the relative viability in the assay with Lapatinib + Dasatinib (first compound 0.6325 µM) worked out at 0.511; with Lapatinib + Dasatinib (first compound 2 µM), 0.416; with Lapatinib + Phenformin (first compound 0.02 µM), 0.276; with Lapatinib + Phenformin (first compound 0.06325 µM), 0.271; with Lapatinib + Phenformin (first compound 0.2 µM), 0.316; with Lapatinib + Phenformin (first compound 0.6325 µM), 0.363. The relative viability with Lapatinib + Phenformin (first compound 2 µM) was determined as 0.382.
For NCI-H1734, the relative viability with Lapatinib + Bortezomib (first compound 0.06325 µM) is 0.839; with Lapatinib + Bortezomib (first compound 0.2 µM), 1.02; with Lapatinib + Bortezomib (first compound 0.6325 µM), 0.993; in the assay with Lapatinib + Bortezomib (first compound 2 µM), 0.862; in the assay with Lapatinib + Pemetrexed (first compound 0.06325 µM), 0.422; in the assay with Lapatinib + Pemetrexed (first compound 0.2 µM), 0.411. Moreover, the relative viability with Lapatinib + Pemetrexed (first compound 0.6325 µM) was 0.425; with Lapatinib + Pemetrexed (first compound 2 µM), 0.383; in the assay with Lapatinib + Dasatinib (first compound 0.02 µM) it was 0.456; with Lapatinib + Dasatinib (first compound 0.06325 µM), 0.384; with Lapatinib + Dasatinib (first compound 0.2 µM) it was 0.544; with Lapatinib + Dasatinib (first compound 0.6325 µM), 0.511. In addition, the relative viability was 0.488 with Lapatinib + Dasatinib (first compound 2 µM); 0.407 with Lapatinib + Phenformin (first compound 0.02 µM); 0.288 with Lapatinib + Phenformin (first compound 0.06325 µM); 0.374 with Lapatinib + Phenformin (first compound 0.2 µM); 0.451 in the assay with Lapatinib + Phenformin (first compound 0.6325 µM); 0.414 in the assay with Lapatinib + Phenformin (first compound 2 µM).
In the case of NCI-H596, the relative viability with Lapatinib + Bortezomib (first compound 0.02 µM) came out at 1.17; in the assay with Lapatinib + Bortezomib (first compound 0.06325 µM), 1.04; with Lapatinib + Bortezomib (first compound 0.2 µM), 0.964; with Lapatinib + Bortezomib (first compound 0.6325 µM) it was 1.03; in the assay with Lapatinib + Bortezomib (first compound 2 µM), 0.776; with Lapatinib + Pemetrexed (first compound 0.06325 µM), 0.505. The relative viability in the assay with Lapatinib + Pemetrexed (first compound 0.2 µM) was determined as 0.531; with Lapatinib + Pemetrexed (first compound 0.6325 µM), 0.504; in the assay with Lapatinib + Pemetrexed (first compound 2 µM), 0.494; with Lapatinib + Dasatinib (first compound 0.06325 µM), 0.521; in the assay with Lapatinib + Dasatinib (first compound 0.2 µM) it was 0.621; in the assay with Lapatinib + Dasatinib (first compound 0.6325 µM) it was 0.573. The relative viability with Lapatinib + Dasatinib (first compound 2 µM) was 0.486; with Lapatinib + Phenformin (first compound 0.06325 µM) it was 0.654; with Lapatinib + Phenformin (first compound 0.2 µM), 0.748; with Lapatinib + Phenformin (first compound 0.6325 µM), 0.762; with Lapatinib + Phenformin (first compound 2 µM) it was 0.685.
Consider SW 1573, for which the relative viability came out at 1.01 in the assay with Lapatinib + Bortezomib (first compound 0.02 µM); 0.892 in the assay with Lapatinib + Bortezomib (first compound 0.06325 µM); 0.953 with Lapatinib + Bortezomib (first compound 0.2 µM); 1.18 in the assay with Lapatinib + Bortezomib (first compound 0.6325 µM); 1.01 with Lapatinib + Bortezomib (first compound 2 µM); 0.716 in the assay with Lapatinib + Pemetrexed (first compound 0.06325 µM). Also, the relative viability amounted to 0.883 with Lapatinib + Pemetrexed (first compound 0.2 µM); 0.882 with Lapatinib + Pemetrexed (first compound 0.6325 µM); 0.759 with Lapatinib + Pemetrexed (first compound 2 µM); 0.389 with Lapatinib + Dasatinib (first compound 0.02 µM); 0.381 with Lapatinib + Dasatinib (first compound 0.06325 µM); 0.738 in the assay with Lapatinib + Dasatinib (first compound 0.2 µM). Besides, the relative viability with Lapatinib + Dasatinib (first compound 0.6325 µM) is 0.434; in the assay with Lapatinib + Dasatinib (first compound 2 µM) it was 0.442; in the assay with Lapatinib + Phenformin (first compound 0.02 µM), 0.398; with Lapatinib + Phenformin (first compound 0.06325 µM) it was 0.338; in the assay with Lapatinib + Phenformin (first compound 0.2 µM), 0.346; in the assay with Lapatinib + Phenformin (first compound 0.6325 µM) it was 0.347. Further, the relative viability in the assay with Lapatinib + Phenformin (first compound 2 µM) came out at 0.354.
As for RERF-LC-KJ, the relative viability with Lapatinib + Bortezomib (first compound 0.02 µM) stood at 0.911; in the assay with Lapatinib + Bortezomib (first compound 0.06325 µM) it was 0.948; with Lapatinib + Bortezomib (first compound 0.2 µM) it was 1.02; with Lapatinib + Bortezomib (first compound 0.6325 µM), 0.983; with Lapatinib + Bortezomib (first compound 2 µM), 0.766; with Lapatinib + Pemetrexed (first compound 0.02 µM) it was 0.39. Further, the relative viability is 0.472 with Lapatinib + Pemetrexed (first compound 0.06325 µM); 0.466 with Lapatinib + Pemetrexed (first compound 0.2 µM); 0.444 with Lapatinib + Pemetrexed (first compound 0.6325 µM); 0.459 with Lapatinib + Pemetrexed (first compound 2 µM); 0.812 with Lapatinib + Dasatinib (first compound 0.02 µM); 0.545 with Lapatinib + Dasatinib (first compound 0.06325 µM). The relative viability in the assay with Lapatinib + Dasatinib (first compound 0.2 µM) came out at 0.732; with Lapatinib + Dasatinib (first compound 0.6325 µM), 0.75; with Lapatinib + Dasatinib (first compound 2 µM), 0.36; with Lapatinib + Phenformin (first compound 0.02 µM), 0.406; in the assay with Lapatinib + Phenformin (first compound 0.06325 µM) it was 0.39; with Lapatinib + Phenformin (first compound 0.2 µM), 0.469. Also, the relative viability with Lapatinib + Phenformin (first compound 0.6325 µM) turned out to be 0.35; in the assay with Lapatinib + Phenformin (first compound 2 µM), 0.369.
Turning to NCI-H1651, the relative viability is 0.994 with Lapatinib + Bortezomib (first compound 0.02 µM); 0.93 in the assay with Lapatinib + Bortezomib (first compound 0.06325 µM); 0.819 with Lapatinib + Bortezomib (first compound 0.2 µM); 0.859 in the assay with Lapatinib + Bortezomib (first compound 0.6325 µM); 0.963 in the assay with Lapatinib + Bortezomib (first compound 2 µM); 0.48 with Lapatinib + Pemetrexed (first compound 0.02 µM). The relative viability with Lapatinib + Pemetrexed (first compound 0.06325 µM) was determined as 0.553; with Lapatinib + Pemetrexed (first compound 0.2 µM), 0.553; with Lapatinib + Pemetrexed (first compound 0.6325 µM) it was 0.6; in the assay with Lapatinib + Pemetrexed (first compound 2 µM) it was 0.657; in the assay with Lapatinib + Dasatinib (first compound 0.02 µM), 0.443; with Lapatinib + Dasatinib (first compound 0.06325 µM), 0.284. The relative viability with Lapatinib + Dasatinib (first compound 0.2 µM) was 0.386; in the assay with Lapatinib + Dasatinib (first compound 0.6325 µM), 0.476; with Lapatinib + Dasatinib (first compound 2 µM), 0.406; with Lapatinib + Phenformin (first compound 0.02 µM), 0.35; with Lapatinib + Phenformin (first compound 0.06325 µM), 0.25; in the assay with Lapatinib + Phenformin (first compound 0.2 µM) it was 0.34. Further, the relative viability was determined as 0.308 with Lapatinib + Phenformin (first compound 0.6325 µM) and 0.374 with Lapatinib + Phenformin (first compound 2 µM).
